Values of other authors in patent publication US20250067661A1, “SYSTEM FOR BODY FLUID ISOMER ANALYSIS” (KONINKLIJKE PHILIPS N.V., priority 2021, published 2025).

Conditions: intravenous solution containing a racemic mixture

Compound	maximum increase in plasma concentration [fold]
C[C@@H](O)C(=O)O [D-lactate]	≤ 13
C[C@H](O)C(=O)O [L-lactate]	≤ 2
